For five compounds, IC50 and Ratio results are on record in ChEMBL document CHEMBL1151030, “Synthesis of tetrazol-1-yl analogs of HMG-COA reductase inhibitor BMS180431 (formerly BMY21950)” (Bioorg Med Chem Lett, 1992).

In test [1] the target is T1, 3-hydroxy-3-methylglutaryl-coenzyme A reductase (Mus musculus, UniProt Q01237).
T1 sequence (Q01237 whole entry): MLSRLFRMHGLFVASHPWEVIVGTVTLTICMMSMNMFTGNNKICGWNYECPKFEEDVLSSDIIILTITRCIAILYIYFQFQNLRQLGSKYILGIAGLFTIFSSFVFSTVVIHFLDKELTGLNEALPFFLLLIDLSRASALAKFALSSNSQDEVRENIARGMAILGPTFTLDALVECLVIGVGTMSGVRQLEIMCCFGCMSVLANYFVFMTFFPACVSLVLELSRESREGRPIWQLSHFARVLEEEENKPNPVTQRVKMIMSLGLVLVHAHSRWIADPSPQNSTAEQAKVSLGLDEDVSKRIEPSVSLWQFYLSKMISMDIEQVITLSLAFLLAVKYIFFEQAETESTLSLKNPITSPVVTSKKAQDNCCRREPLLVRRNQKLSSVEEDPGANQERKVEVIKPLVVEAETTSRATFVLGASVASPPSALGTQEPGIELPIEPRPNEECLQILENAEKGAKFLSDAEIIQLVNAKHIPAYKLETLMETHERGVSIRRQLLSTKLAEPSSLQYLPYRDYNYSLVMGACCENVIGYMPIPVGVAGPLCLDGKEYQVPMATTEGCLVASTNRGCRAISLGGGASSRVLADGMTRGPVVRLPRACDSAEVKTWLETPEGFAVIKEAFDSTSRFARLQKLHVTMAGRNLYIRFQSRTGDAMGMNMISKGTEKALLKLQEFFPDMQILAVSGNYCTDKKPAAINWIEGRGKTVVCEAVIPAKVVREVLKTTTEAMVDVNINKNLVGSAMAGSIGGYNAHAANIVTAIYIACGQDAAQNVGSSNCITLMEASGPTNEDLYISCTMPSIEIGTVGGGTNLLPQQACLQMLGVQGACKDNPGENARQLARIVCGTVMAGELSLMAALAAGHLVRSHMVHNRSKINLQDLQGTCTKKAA
Briefly: In vitro inhibitory activity against isolated enzyme HMG-CoA reductase.

Test [2] deals with T2, 3-hydroxy-3-methylglutaryl-coenzyme A reductase (Rattus norvegicus, UniProt P51639).
T2 sequence (P51639 whole entry): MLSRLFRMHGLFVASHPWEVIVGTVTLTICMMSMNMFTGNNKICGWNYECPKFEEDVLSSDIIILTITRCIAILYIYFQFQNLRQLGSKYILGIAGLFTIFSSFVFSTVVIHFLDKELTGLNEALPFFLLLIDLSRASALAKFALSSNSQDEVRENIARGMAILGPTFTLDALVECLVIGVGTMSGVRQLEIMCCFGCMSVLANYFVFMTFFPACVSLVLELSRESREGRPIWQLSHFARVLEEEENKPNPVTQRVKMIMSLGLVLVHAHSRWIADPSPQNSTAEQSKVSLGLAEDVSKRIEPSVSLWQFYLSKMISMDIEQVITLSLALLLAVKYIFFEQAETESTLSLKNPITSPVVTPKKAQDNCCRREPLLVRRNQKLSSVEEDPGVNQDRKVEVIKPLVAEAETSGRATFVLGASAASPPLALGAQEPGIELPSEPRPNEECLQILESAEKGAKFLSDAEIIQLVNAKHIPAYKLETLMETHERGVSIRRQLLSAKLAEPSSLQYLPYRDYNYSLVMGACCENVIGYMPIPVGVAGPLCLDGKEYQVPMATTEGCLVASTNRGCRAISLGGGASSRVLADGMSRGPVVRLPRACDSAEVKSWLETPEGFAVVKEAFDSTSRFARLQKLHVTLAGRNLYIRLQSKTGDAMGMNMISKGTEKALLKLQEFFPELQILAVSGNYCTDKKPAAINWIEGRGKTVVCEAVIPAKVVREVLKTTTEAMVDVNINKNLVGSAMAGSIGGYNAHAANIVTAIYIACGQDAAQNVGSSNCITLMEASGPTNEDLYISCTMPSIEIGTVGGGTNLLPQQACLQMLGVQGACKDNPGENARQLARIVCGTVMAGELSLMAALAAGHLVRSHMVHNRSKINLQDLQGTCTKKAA
Briefly: Compound was evaluated for inhibitory activity against HMG-CoA reductase from rat hepatocyte. It is filed as cell-based.

The target in test [3] is T3, 3-hydroxy-3-methylglutaryl-coenzyme A reductase (Homo sapiens, UniProt P04035).
T3 sequence (P04035 whole entry): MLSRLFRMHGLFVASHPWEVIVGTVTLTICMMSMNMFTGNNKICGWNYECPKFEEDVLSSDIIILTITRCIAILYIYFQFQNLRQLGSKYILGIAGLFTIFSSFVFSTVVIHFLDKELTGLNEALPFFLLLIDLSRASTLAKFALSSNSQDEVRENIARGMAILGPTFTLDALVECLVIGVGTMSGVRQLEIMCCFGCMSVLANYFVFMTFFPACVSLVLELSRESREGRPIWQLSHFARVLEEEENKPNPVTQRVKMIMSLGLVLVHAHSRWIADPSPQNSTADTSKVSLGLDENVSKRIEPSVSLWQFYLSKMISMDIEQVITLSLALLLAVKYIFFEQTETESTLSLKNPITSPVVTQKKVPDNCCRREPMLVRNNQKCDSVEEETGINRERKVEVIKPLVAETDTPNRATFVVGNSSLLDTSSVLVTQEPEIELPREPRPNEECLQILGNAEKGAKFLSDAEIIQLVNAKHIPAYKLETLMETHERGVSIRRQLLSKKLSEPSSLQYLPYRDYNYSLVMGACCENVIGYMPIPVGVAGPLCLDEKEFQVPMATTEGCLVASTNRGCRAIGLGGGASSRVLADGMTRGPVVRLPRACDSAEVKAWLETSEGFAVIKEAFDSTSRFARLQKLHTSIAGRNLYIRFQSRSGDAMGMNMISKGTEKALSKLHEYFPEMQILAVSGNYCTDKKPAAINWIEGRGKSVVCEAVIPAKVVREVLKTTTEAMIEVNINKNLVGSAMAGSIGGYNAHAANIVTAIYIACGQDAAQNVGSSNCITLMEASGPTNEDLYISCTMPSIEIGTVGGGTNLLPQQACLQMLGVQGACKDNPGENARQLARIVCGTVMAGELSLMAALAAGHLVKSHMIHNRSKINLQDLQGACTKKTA
In words: Compound was evaluated for inhibitory activity against HMG-CoA reductase in HepG2 cells. The format is cell-based.

Another test relates to Hepatocyte. Briefly: Ratio of inhibitory activity of HepG2 to hepatocyte. The format is cell-based.
Test [4] deals with T3, 3-hydroxy-3-methylglutaryl-coenzyme A reductase. Briefly: Compound was evaluated for inhibitory activity against HMG-CoA reductase in adrenal cell preparation. It is filed as cell-based.
In test [5] the target is T2, 3-hydroxy-3-methylglutaryl-coenzyme A reductase. In words: Compound was evaluated for inhibitory activity against HMG-CoA reductase in spleen cell preparation. The format is tissue-based.
The next test has as its system HepG2. In words: Ratio of inhibitory activity against HMG-CoA reductase of HepG2 cells vs hepatocytes. The format is cell-based.
The target in test [6] is T2, 3-hydroxy-3-methylglutaryl-coenzyme A reductase. In words: Compound was evaluated for inhibitory activity against HMG-CoA reductase in testes cell preparation. The format is tissue-based, Testis.

Take `Cc1nnnn1C(/C=C/[C@@H](O)C[C@@H](O)CC(=O)O)=C(c1ccc(F)cc1)c1ccc(F)cc1`: the IC50 came out at 0.63 µM in test [1], 0.1 µM in test [2] and 1.29 µM in test [3]. Also, the Ratio with Hepatocyte was found to be 13.

In the case of `Cn1nnnc1C(/C=C/[C@@H](O)C[C@@H](O)CC(=O)O)=C(c1ccc(F)cc1)c1ccc(F)cc1`, the IC50 came to 0.043 µM in test [1]; 1.6 µM in test [4]; 3.2 µM in test [5]; 1.34 µM in test [3]; 1.8 µM in test [6]. Further, the Ratio with HepG2 came out at 62.

For the compound `O=C(O)C[C@H](O)C[C@H](O)/C=C/C(=C(c1ccc(F)cc1)c1ccc(F)cc1)n1cnnn1`, the results for the IC50 in test [1], in test [2] and in test [3] were 0.12 µM, 0.02 µM and 1.72 µM, respectively. Further, the Ratio in the test with HepG2 worked out at 86.

Compound `O=C(O)C[C@H](O)C[C@H](O)/C=C/C(=C(c1ccc(F)cc1)c1ccc(F)cc1)n1nnnc1-c1ccccc1` came in with an IC50 in test [1] above 100 µM.

In turn, `CC[C@H](C)C(=O)O[C@H]1C[C@@H](C)C=C2C=C[C@H](C)[C@H](CC[C@@H]3C[C@@H](O)CC(=O)O3)[C@H]21` [LOVASTATIN] returned an IC50 in test [1] of 0.027 µM.

The term IC50 denotes the concentration needed to halve the response being measured. Low readings indicate greater potency in that assay, high ones weaker potency in that assay.
